Like-named read-outs stand apart in the source and are kept apart here.
Key:
[1] = logP by HPLC on reversed-phase column (C18), acidic range; type: physicochemical; conditions: formic acid in water/acetonitrile
Protocol: The logP values were determined according to EEC Directive 79/831 Annex V.A8 by HPLC (high-performance liquid chromatography) on a reversed-phase column (C18) using the following methods:
Calibration was carried out using a homologous series of straight-chain alkan-2-ones (having 3 to 16 carbon atoms) with known logP values. The values between successive alkanones are determined by linear regression.

[2] = tested on: larvae of the mustard beetle (Phaedon cochleariae); assay: Phaedon cochleariae spray test; type: in vivo; conditions: foliar, 168 h, read-out: efficacy
Protocol: (§1) Solvent: 78.0 parts by weight of acetone • • 1.5 parts by weight of dimethylformamide
(§2) Emulsifier: alkylaryl polyglycol ether
(§3) To produce a suitable active compound formulation, 1 part by weight of active compound is dissolved with the specified parts by weight of solvent and made up to the desired concentration with water containing an emulsifier concentration of 1000 ppm. To produce further test concentrations, the formulation is diluted with emulsifier-containing water.
Discs of Chinese cabbage leaves (Brassica pekinensis) are sprayed with an active compound formulation of the desired concentration and, after drying, populated with larvae of the mustard beetle (Phaedon cochleariae).
After 7 days, the efficacy in % is determined. 100% means that all the beetle larvae have been killed; 0% means that no beetle larvae have been killed.

[3] = tested on: caterpillars of the fall armyworm (Spodoptera frugiperda); assay: Spodoptera frugiperda spray test; type: in vivo; conditions: foliar, 168 h, read-out: efficacy
Protocol: as §1, §2, §3
Leaf discs of maize (Zea mays) are sprayed with an active compound formulation of the desired concentration and, after drying, populated with caterpillars of the fall armyworm (Spodoptera frugiperda).
After 7 days, the efficacy in % is determined. 100% means that all the caterpillars have been killed; 0% means that no caterpillar has been killed.

[4] = tested on: green peach aphids (Myzus persicae); assay: Myzus persicae oral test; type: in vivo; conditions: 120 h, read-out: efficacy
Protocol: Solvent: 100 parts by weight of acetone
To produce a suitable active compound formulation, 1 part by weight of active compound is dissolved with the stated parts by weight of solvent and made up to the desired concentration with water.
50 μl of the active compound formulation are transferred into microtitre plates and made up to a final volume of 200 μl with 150 μl of IPL41 insect medium (33%+15% sugar). Subsequently, the plates are sealed with parafilm, which a mixed population of green peach aphids (Myzus persicae) within a second microtitre plate is able to puncture and imbibe the solution.
(§4) After 5 days, the efficacy in % is determined. 100% means that all the aphids have been killed; 0% means that no aphids have been killed.

[5] = tested on: green peach aphid (Myzus persicae); assay: Myzus persicae spray test; type: in vivo; conditions: foliar, 120 h, 100 g/ha, after 5 days, Chinese cabbage leaf discs, read-out: efficacy
Protocol: Solvent: 78 parts by weight of acetone • • 1.5 parts by weight of dimethylformamide
as §2, §3
Discs of Chinese cabbage leaves (Brassica pekinensis) infested by all stages of the green peach aphid (Myzus persicae) are sprayed with an active compound formulation of the desired concentration.
as §4

[6] = tested on: adult cat fleas (Ctenocephalides felis); assay: Ctenocephalides felis oral test; type: in vivo; conditions: 48 h, 100 ppm in citrated cattle blood, after 2 days, read-out: efficacy (kill)
Protocol: Solvent: dimethyl sulfoxide
To produce a suitable active compound formulation, 10 mg of active compound are mixed with 0.5 ml of dimethyl sulfoxide. Dilution with citrated cattle blood gives the desired concentration.
About 20 unfed adult cat fleas (Ctenocephalides felis) are placed into a chamber which is closed at the top and bottom with gauze. A metal cylinder whose bottom end is closed with parafilm is placed onto the chamber. The cylinder contains the blood/active compound formulation, which can be imbibed by the fleas through the parafilm membrane.
After 2 days, the kill in % is determined. 100% means that all of the fleas have been killed; 0% means that none of the fleas have been killed.

[7] = reversed-phase HPLC column (C18)
[8] = 100 g/ha, after 7 days, Chinese cabbage leaf discs
[9] = 100 g/ha, after 7 days, maize leaf discs

SMILES: CCS(=O)(=O)c1c(-c2nc3cc(C(F)(F)F)cnc3n2C)nc2cc(Br)ccn12 [2-[7-Bromo-3-(ethylsulfonyl)imidazo[1,2-a]pyridin-2-yl]-3-methyl-6-(trifluoromethyl)-3H-imidazo[4,5-b]pyridine]
- chromatographic logP [1, 7]: 3.3

SMILES: CCS(=O)(=O)c1c(-c2nc3cc(C(F)(F)F)cnc3n2C)nc2cc(N)ccn12 [3-(Ethylsulfonyl)-2-[3-methyl-6-(trifluoromethyl)-3H-imidazo[4,5-b]pyridin-2-yl]imidazo[1,2-a]pyridine-7-amine]
- chromatographic logP [1, 7]: 2.13

SMILES: CCS(=O)(=O)c1c(C(=O)O)nc2cc(Br)ccn12 [7-Bromo-3-(ethylsulfonyeimidazo[1,2-a]pyridine-2-carboxylic acid]
- chromatographic logP [1, 7]: 1.52

SMILES: CCOC(=O)c1nc2cc(Br)ccn2c1SCC [Ethyl 7-bromo-3-(ethylsulfanyl)imidazo[1,2-a]pyridine-2-carboxylate]
- chromatographic logP [1, 7]: 2.76

SMILES: CCOC(=O)c1nc2cc(Br)ccn2c1S(=O)(=O)CC [Ethyl 7-bromo-3-(ethylsulfonyl)imidazo[1,2-a]pyridine-2-carboxylate]
- chromatographic logP [1, 7]: 2.22

SMILES: CCS(=O)(=O)c1c(-c2nc3cc(C(F)(F)F)cnc3n2C)nc2cc(NC(=S)OCC3CC3)ccn12 [Example I-06, O-(Cyclopropylmethyl) {3-(ethylsulfonyl)-2-[3-methyl-6-(trifluoromethyl)-3H-imidazo[4,5-b]pyridin-2-yl]imidazo[1,2-a]pyridin-7-yl}carbamothioate]
- pest or weed control at 100 g/ha ([2]; in Brassica rapa): 100%
- pest or weed control at 100 g/ha ([3]; in Zea mays): 100%
- chromatographic logP [1]: 3.76
- pest or weed control at 4 ppm [4]: 100%

SMILES: CCS(=O)(=O)c1c(-c2nc3cc(C(F)(F)F)cnc3n2C)nc2cc(C(=O)NNC3CC3)ccn12 [Example I-10, N′-Cyclopropyl-3-(ethylsulfonyl)-2-[3-methyl-6-(trifluoromethyl)-3H-imidazo[4,5-b]pyridin-2-yl]imidazo[1,2-a]pyridine-7-carbohydrazide]
- pest or weed control at 100 g/ha [5]: 90%
- chromatographic logP [1, 7]: 2.41
- pest or weed control at 4 ppm ([4]; 4 ppm, after 5 days): 100%

SMILES: CCS(=O)(=O)c1c(-c2nc3cc(C(F)(F)F)cnc3n2C)nc2cc(/C=C/C3CC3)ccn12 [Example I-14]
- pest or weed control at 100 ppm [6]: 98%
- pest or weed control at 100 g/ha [5]: 90%
- pest or weed control at 100 g/ha [2, 8]: 100%
- pest or weed control at 100 g/ha [3, 9]: 100%
- pest or weed control at 4 ppm ([4]; 4 ppm, after 5 days): 100%

SMILES: CCS(=O)(=O)c1c(-c2nc3cc(S(=O)(=O)C(F)(F)F)cnc3n2C)nc2cc(S(=O)(=O)C3CC3)ccn12 [Example I-15]
- pest or weed control at 100 g/ha [5]: 90%
- pest or weed control at 100 g/ha [2, 8]: 100%
- pest or weed control at 100 g/ha [3, 9]: 100%

SMILES: C=CCOC(=O)Nc1ccn2c(S(=O)(=O)CC)c(-c3nc4cc(C(F)(F)F)cnc4n3C)nc2c1 [Example I-17]
- pest or weed control at 100 ppm [6]: 100%
- pest or weed control at 100 g/ha ([2]; in Brassica rapa): 100%
- pest or weed control at 100 g/ha ([3]; in Zea mays): 100%

SMILES: CCS(=O)(=O)c1c(-c2nc3cc(C(F)(F)F)cnc3n2C)nc2cc(NC3=CC(=O)OC3)ccn12 [Example I-19]
- pest or weed control at 100 g/ha [2, 8]: 100%

SMILES: CCS(=O)(=O)c1c(-c2nc3cc(C(F)(F)F)ncc3n2C)nc2cc(S(=O)(=O)NC3CC3)ccn12 [Example I-23]
- pest or weed control at 100 g/ha [5]: 90%

SMILES: CCS(=O)(=O)c1c(-c2nc3cc(C(F)(F)F)nnc3n2C)nc2cc(NS(=O)(=O)C3CC3)ccn12 [Example I-26]
- pest or weed control at 100 g/ha [5]: 100%

SMILES: CCS(=O)(=O)c1c(-c2nc3cc(OC(F)(F)F)cnc3n2C)nc2cc(C3(C#N)CC3)ccn12 [Example I-29]
- pest or weed control at 100 g/ha [5]: 90%
- pest or weed control at 100 g/ha [2, 8]: 100%
- pest or weed control at 100 g/ha [3, 9]: 100%

SMILES: CCS(=O)(=O)c1c(-c2nc3cc(C(F)(F)F)cnc3n2C)nc2cc(NC(C)=O)ccn12 [N-{3-(Ethylsulfonyl)-2-[3-methyl-6-(trifluoromethyl)-3H-imidazo[4,5-b]pyridin-2-yl]imidazo[1,2-a]pyridin-7-yl}acetamide]
- chromatographic logP [1, 7]: 2.28

SMILES: CCS(=O)(=O)c1c(-c2nc3cc(C(F)(F)F)cnc3n2C)nc2cc(CC#N)ccn12 [{3-(Ethylsulfonyl)-2-[3-methyl-6-(trifluoromethyl)-3H-imidazo[4,5-b]pyridin-2-yl]imidazo[1,2-a]pyridin-7-yl}acetonitrile]
- chromatographic logP [1, 7]: 2.54

From USRE50663E1, “Heterocycle derivatives as pesticides” (Bayer Aktiengesellschaft, priority 2017, dated 2025)
